According to patent US9714244B2, “Substituted pyrido[4,3-d]pyrimidines as Wee-1 inhibitors” (ALMAC DISCOVERY LIMITED, priority 2013, dated 2017):

Tests used:
Wee-1 kinase = Wee-1 kinase (Homo sapiens (Human), UniProt P30291); experiment: Measurement of Wee-1 kinase activity (ADP-Glo); type: biochemical; settings: read-out: Wee-1 IC50 activity
Description: Method 1: Measurement of Wee-1 kinase activity
In the measurement of Wee-1 activity, a commercial peptide Poly(Lys Tyr(4:1)) hydrobromide was purchased from Sigma Aldrich and used as the substrate. Activated Wee-1 kinase was purchased from Invitrogen (PV3817) and an ADP-Glo luminescent kit was purchased from Promega.
All reactions took place in […] volumes in reaction buffer containing 40 mM Tris-HCl and 20 mM magnesium chloride, supplemented with 0.1 mg/mL bovine serum albumin and 2 mM DTT. Compounds were serially diluted in buffer and 5 μL of each concentration pipetted into a white 384 well plate (Sigma Aldrich M6186). A 5 μL aliquot of the Wee-1 enzyme was added to each well and the plate centrifuged for 1 min to ensure mixing of the enzyme and inhibitor.
The plate was incubated at room temperature for 30 minutes before the addition of 2.0 μg/mL of substrate and 30 μM ATP in a 5 μL aliquot. The plate was centrifuged for one minute and incubated for 1 h at RT.
15 μL of ADP-Glo stop reagent was added to each well to quench the reaction and deplete unconverted ATP. The plate was incubated for a further 40 min in the dark at RT.
30 μL of ADP-Glo kinase detection reagent was added to each well, converting ADP to ATP, catalysing the generation of luciferin by luciferase. The plate was shaken for 1 min, and incubated in the dark for an additional hour.
Luminescence from each well was detected using the Biotek Synergy4 HD plate reader and the percentage inhibition of kinase activity calculated for each inhibitor tested. Positive (kinase only) and negative (no kinase) controls were added to each plate to ensure specific interaction of kinase and inhibitor. The IC50 concentration for each inhibitor was calculated by plotting the percentage kinase inhibition against concentration of inhibitor and the curve generated by non-linear regression fitting.

[1] = tested on: phospho-cdc2 (Tyr15) in HT-29 cells; experiment: Effect on phosphorylation of cdc2 at Tyr15 in HT-29 cells (PathScan ELISA); type: cell-based; settings: Homo sapiens, HT-29, 8 h; HT29 cells, eight hours incubation; read-out: HT29 pCDC2 activity
Description: Method 2: Determining the effect of compounds on the phosphorylation of cdc2 at Tyr15
The colorectal cancer cell lines HT-29 and HCT-116 were purchased from the ATCC and routinely maintained in McCoy's Medium (Invitrogen) supplemented with 10% Foetal Calf Serum.
The cells were trypsinised from their growing vessel and counted, 100 μL of cell suspension containing 6000 cells was pipetted into black 96 well Co-star plates and incubated overnight to allow adherence to the surface at a temperature of 37° C. and an atmosphere of 5% CO2. Test compounds were formulated in DMSO and diluted in foetal calf serum supplemented medium. Incubating medium was removed by aspiration and diluted drug supplemented medium added to each well.
The plate was returned to the incubator for an additional eight hours at 37° C. and an atmosphere of 5% CO2. Post incubation, the drug supplemented medium was aspirated from each well and the cells were washed once in ice-cold phosphate buffered saline (PBS). 100 μL of cell lysis buffer (Cell Signalling Technologies #9803) containing 20 mM Tris, 150 mM NaCl, 1 mM EDTA, 1 mM EGTA, 1% Triton-X100, 2.5 mM sodium pyrophosphate, 1 mM glycerophosphate, 1 mM Na3VO4 and 1 μg/mL leupeptin was added to each well of the 96 well plate and incubated at 4° C. for 30 min. The samples on the plate were snap frozen at −80° C. until required.
Immediately before the continuation of the assay, the sample plate was thawed and centrifuged at 4° C. for 10 min and the supernatant transferred to secondary tubes or 96 well plate.
Cell supernatant was mixed in a ratio of 1:1 with sample dilutent buffer and vortexed for one minute. 100 μL of diluted sample was pipetted into pre-coated plates containing a rabbit polyclonal antibody for phospho-cdc2 (Tyr15) (Cell Signalling Technologies PathScan kit #7176). The plate was sealed and incubated overnight at 4° C.
The plate seal was removed and the well contents aspirated, followed by 3×5 min washes with 200 μL of diluted wash buffer. Between each wash the plate was tapped firmly onto blotting paper to ensure the removal of all kit solution. 100 μL of kit detection antibody was added to each well and the plate re-sealed and incubated at 37° C. for 1 h. Post incubation the plate was washed and processed in a similar manner to that previously described.
100 μL of horseradish peroxidise-linked secondary antibody was added to each test well, the plate sealed and incubated for thirty minutes at 37° C. Post incubation, the plate was washed as previously stated, followed by the addition of 100 μL of 3,3′,5,5′ tetramethylbenzidine (TMB reagent). The plate was sealed and incubated at RT for 30 min.
100 μL of stop solution was added to each well and the underside of the plate wiped with a lint-free tissue, prior to spectrophotometric determination. Absorbance from each well was read at 450 nm within 30 min of the addition of the stop solution.
The percentage of phospho-cdc2 was calculated compared to DMSO control and plotted versus the concentration of inhibitor using GraphPad Prism. Data was fitted using non-linear regression analysis and IC50 values generated.

[2] = CLint estimates using human liver microsomes; type: in vitro ADME; settings: pH 7.4, read-out: HLM activity (HLM CLint)
Description: Method for the Determination of CLint Estimates Using Human Liver Microsomes
Test compounds (final concentration=1 μM; final DMSO concentration=0.1%) were incubated in 0.1M phosphate buffer pH 7.4 with human liver microsomes (0.5 mg of protein/mL) at 37° C. Reactions were started by addition of NADPH in 0.1M phosphate buffer pH 7.4 (final concentration 1 mM). 40 μL aliquots were removed at 2, 5, 10, 15, 20, 30, 40 and 50 min. Reactions were quenched in 80 μL of ice-cold methanol. Samples were subsequently frozen overnight then centrifuged at 3500 rpm for 20 min at 4° C. The supernatants were removed and transferred into analytical plates and analysed by LC/MS/MS.
All samples were analysed on a Waters Acquity I-Class coupled to a Waters Xevo TQD mass spectrometer. A Waters BEH C18 2.1×50 mm 1.7 μm column was used and mobile phases were water and methanol containing 0.1% formic acid as modifier. Analysis was by multiple reaction monitoring and conditions were optimised for each test compound.
From a plot of ln peak area against time, the gradient of the line is determined. Subsequently, half-life and intrinsic clearance are calculated using the following equations.

[3] = molecular target: human ether a go-go related gene (hERG) K+ channel (Homo sapiens (Human), UniProt Q12809); experiment: hERG inhibition, IonWorks patch clamp electrophysiology; type: cell-based; settings: 8-point curve from 11 μM
Description: Compounds were tested for inhibition of the human ether a go-go related gene (hERG) K^+ channel using IonWorks patch clamp electrophysiology at Essen BioScience.

[4] = Human hepatocyte assay CLint; type: in vitro ADME; settings: hepatocytes
Description: (§1) Compounds of the present invention have good stability in human and/or rat hepatocyte incubations. In particular, representative examples 7, 8, 13, 18, 20 have CLint of <20 μL/min/10^6 cells in a human hepatocyte assay and/or <40 μL/min/10^6 cells in a rat hepatocyte assay.

[5] = Rat hepatocyte assay CLint; type: in vitro ADME; settings: hepatocytes
Description: as §1

[6] = Oral bioavailability in rat; settings: in vivo
Text: Compounds of the present invention are orally bioavailable.

CYP3A4 = CYP3A4 (Homo sapiens (Human), UniProt P08684); experiment: Time dependent CYP inhibition: CYP3A4; type: in vitro ADME; settings: 30 min pre incubation ±NADPH relative to direct inhibition IC50 with no pre-incubation
Text: (§2) Compounds of the present invention have no time dependent CYP inhibition.

CYP2C9 = CYP2C9 (Homo sapiens (Human), UniProt P11712); experiment: Time dependent CYP inhibition: CYP2C9; type: in vitro ADME; settings: 30 min pre incubation ±NADPH relative to direct inhibition IC50 with no pre-incubation
Text: as §2

CYP2C19 = CYP2C19 (Homo sapiens (Human), UniProt P33261); experiment: Time dependent CYP inhibition: CYP2C19; type: in vitro ADME; settings: 30 min pre incubation ±NADPH relative to direct inhibition IC50 with no pre-incubation
Text: as §2

CYP2D6 = CYP2D6 (Homo sapiens (Human), UniProt P10635); experiment: Time dependent CYP inhibition: CYP2D6; type: in vitro ADME; settings: 30 min pre incubation ±NADPH relative to direct inhibition IC50 with no pre-incubation
Text: as §2

Sequence of human ether a go-go related gene (hERG) K+ channel (Q12809 whole entry): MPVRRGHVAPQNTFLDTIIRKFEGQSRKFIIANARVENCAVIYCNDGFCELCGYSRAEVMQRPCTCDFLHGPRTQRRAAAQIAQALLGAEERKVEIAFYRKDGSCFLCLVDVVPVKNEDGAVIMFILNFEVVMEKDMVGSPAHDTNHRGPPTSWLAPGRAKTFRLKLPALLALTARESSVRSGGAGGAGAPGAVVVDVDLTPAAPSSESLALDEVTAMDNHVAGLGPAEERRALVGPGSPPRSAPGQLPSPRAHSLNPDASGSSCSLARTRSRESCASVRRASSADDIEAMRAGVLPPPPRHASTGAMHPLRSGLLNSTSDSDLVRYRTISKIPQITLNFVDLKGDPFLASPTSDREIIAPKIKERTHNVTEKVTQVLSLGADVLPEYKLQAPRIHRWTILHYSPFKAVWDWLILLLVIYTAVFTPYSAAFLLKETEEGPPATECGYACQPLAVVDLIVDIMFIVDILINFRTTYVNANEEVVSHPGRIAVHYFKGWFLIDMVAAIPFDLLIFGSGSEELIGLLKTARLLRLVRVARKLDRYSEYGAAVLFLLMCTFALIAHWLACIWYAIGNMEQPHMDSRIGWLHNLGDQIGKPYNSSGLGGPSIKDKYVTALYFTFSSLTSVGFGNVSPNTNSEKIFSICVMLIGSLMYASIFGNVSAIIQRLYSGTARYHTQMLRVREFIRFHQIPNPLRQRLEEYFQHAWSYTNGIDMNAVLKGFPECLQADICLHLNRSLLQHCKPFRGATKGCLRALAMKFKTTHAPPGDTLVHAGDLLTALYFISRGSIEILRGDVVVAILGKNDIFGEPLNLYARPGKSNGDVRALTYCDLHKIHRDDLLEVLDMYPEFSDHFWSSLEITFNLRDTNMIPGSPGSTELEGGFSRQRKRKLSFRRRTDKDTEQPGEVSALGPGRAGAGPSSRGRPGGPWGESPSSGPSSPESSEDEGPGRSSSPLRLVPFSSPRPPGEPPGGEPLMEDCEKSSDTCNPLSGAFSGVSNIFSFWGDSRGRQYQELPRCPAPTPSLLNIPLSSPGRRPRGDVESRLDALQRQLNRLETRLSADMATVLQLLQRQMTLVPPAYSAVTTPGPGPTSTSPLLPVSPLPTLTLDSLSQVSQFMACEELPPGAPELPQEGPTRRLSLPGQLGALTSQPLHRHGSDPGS
Sequence of CYP3A4 (P08684 whole entry): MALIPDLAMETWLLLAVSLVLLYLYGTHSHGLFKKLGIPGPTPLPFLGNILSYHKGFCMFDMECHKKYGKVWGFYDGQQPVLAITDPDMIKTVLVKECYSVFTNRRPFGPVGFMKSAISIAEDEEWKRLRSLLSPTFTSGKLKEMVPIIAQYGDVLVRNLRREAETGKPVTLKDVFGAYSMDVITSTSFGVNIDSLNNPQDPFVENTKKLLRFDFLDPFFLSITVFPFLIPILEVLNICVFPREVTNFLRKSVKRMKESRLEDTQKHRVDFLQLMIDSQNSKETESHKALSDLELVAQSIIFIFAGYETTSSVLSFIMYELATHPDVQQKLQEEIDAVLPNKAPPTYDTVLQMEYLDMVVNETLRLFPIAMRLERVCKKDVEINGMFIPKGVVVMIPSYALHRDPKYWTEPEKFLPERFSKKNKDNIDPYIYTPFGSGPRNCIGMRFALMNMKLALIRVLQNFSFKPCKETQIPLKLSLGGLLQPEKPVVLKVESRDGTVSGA
Sequence of CYP2C19 (P33261 whole entry): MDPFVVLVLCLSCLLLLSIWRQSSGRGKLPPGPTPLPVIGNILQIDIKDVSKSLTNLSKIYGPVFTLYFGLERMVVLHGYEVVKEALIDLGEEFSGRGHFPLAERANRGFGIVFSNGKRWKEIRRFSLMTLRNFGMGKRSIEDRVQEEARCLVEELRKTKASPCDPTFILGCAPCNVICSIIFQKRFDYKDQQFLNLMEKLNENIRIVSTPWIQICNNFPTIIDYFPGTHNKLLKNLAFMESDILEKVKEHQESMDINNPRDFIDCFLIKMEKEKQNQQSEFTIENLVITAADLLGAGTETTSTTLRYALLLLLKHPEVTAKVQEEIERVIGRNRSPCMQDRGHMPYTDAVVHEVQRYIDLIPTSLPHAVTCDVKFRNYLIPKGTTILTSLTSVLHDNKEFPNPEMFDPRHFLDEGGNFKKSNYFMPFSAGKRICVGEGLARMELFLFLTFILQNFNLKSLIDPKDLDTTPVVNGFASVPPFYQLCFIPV
Sequence of CYP2C9 (P11712 whole entry): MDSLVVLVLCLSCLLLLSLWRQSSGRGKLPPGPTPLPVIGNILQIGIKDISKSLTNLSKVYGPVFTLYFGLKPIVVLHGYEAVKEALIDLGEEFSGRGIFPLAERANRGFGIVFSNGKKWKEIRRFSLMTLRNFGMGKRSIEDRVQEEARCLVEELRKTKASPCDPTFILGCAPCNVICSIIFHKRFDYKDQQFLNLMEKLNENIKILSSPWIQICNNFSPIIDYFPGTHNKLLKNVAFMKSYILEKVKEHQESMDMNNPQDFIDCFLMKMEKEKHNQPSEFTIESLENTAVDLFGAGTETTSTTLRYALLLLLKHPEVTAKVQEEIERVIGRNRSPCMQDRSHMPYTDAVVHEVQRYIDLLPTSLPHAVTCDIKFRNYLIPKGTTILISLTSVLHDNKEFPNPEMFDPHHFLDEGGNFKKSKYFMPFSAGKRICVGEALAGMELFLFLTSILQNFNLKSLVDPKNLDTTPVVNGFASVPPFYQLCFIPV
Sequence of CYP2D6 (P10635 whole entry): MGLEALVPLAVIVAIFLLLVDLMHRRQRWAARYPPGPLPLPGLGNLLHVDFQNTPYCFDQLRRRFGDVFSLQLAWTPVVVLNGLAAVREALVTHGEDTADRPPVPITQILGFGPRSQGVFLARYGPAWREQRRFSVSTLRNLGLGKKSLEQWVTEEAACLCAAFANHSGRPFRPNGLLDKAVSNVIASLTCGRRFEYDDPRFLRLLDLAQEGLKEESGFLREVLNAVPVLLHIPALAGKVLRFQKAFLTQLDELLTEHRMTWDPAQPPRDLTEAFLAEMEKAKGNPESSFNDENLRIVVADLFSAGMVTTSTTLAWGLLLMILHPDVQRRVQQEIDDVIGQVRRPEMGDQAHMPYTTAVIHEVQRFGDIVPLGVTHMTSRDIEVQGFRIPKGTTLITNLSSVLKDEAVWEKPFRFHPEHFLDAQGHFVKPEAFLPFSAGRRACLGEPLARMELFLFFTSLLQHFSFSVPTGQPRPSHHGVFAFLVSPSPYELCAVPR
Sequence of Wee-1 kinase (P30291 whole entry): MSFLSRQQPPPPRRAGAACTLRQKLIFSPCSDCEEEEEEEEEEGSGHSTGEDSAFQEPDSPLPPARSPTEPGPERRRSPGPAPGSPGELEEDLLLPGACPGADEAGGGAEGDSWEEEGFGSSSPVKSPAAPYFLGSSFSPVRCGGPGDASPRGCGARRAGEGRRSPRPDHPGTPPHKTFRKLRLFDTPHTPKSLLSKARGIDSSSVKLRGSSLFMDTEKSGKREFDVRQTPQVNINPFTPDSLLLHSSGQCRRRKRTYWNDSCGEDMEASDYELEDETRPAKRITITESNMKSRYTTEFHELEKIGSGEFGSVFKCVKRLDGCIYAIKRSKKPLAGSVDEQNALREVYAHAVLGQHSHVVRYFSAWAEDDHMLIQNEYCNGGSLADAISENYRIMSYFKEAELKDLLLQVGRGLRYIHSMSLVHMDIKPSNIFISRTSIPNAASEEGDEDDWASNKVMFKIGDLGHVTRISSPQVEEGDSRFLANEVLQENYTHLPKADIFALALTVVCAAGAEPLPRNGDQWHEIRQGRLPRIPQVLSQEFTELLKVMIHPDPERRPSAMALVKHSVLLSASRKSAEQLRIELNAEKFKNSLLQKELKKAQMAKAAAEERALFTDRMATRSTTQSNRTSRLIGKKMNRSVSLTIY

Work on CNCc1cc(Nc2ncc3c(=O)n(-c4c(Cl)cccc4Cl)ccc3n2)ccc1N1CCOCC1 [Example 20, 6-(2,6-Dichlorophenyl)-2-((3-((methylamino)methyl)-4-morpholinophenyl)amino)pyrido[4,3-d]pyrimidin-5(6H)-one] yielded an IC50 (Wee-1 kinase) of less than 10 nM, an IC50 [1] of no more than 100 nM and a microsomal CLint at 1 μM [2] of no more than 20 µL/min/mg. It also gave an IC50 [3] of no less than 10000 nM, a hepatocyte CLint [4] of less than 20 µL/min/1e6 cells and a hepatocyte CLint [5] of less than 40 µL/min/1e6 cells. The bioavailability [6] was greater than 25%, the “time dependent inhibition of CYP3A4: shift in IC50” value (CYP3A4) was less than 2 fold and the “time dependent inhibition of CYP2C9: shift in IC50” value (CYP2C9) was less than 2 fold. The “time dependent inhibition of CYP2C19: shift in IC50” value (CYP2C19) was less than 2 fold and the “time dependent inhibition of CYP2D6: shift in IC50” value (CYP2D6) was less than 2 fold.
